32 molecules from patent publication US20230049231A1 (priority 2019, published 2023) can be followed below.

Where only a bound is given, the exact number is not on record here.

What is called IC50 is the concentration that gives 50% inhibition. Higher therefore signals weaker potency in that assay.

For one test, the target named is T1, Kv1.3 potassium channel (Homo sapiens, UniProt P22001).
T1 construct: expressed in transfected cells
Kind of test: Kv1.3 potassium channel blocker activity, automated whole-cell patch clamp (Patchliner). In kind it is cell-based. The essentials:
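IC50 came from Hill-equation fits of peak and AUC currents from the final pulse at each concentration, normalized to compound-free control. Compounds applied consecutively at 30 nM to 100 μM (up to 0.3% DMSO) to Kv1.3-expressing CHO-K1 cells, P/4 leak subtraction. Pulses were +40 mV, 100 ms, from −90 mV holding, at 0.1 Hz on Patchliner.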
Background: The patch-clamp technique gives a direct electrical read-out from membranes.

A further test deals with T2, hERG channel (Homo sapiens, UniProt Q12809).
T2 construct: expressed in transfected cells
As to the kind of experiment: hERG electrophysiology, automated whole-cell patch clamp (Patchliner). It is filed as cell-based. Summed up:
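Automated whole-cell patch clamp on CHO-K1 cells stably expressing hERG; 30 nM–100 μM applied cumulatively to the same cell, ≤0.3% DMSO. Pulses: −80 mV holding, +20 mV for 300 ms, −50 mV for 300 ms tail, 0.3 Hz, 70 per concentration. Last-pulse AUC and peak, normalized to control, were fitted to a Hill equation for IC50.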
Background: hERG is a cardiac potassium channel; its block is linked to QT prolongation.

The mark [1] stands for this setting: Kv1.3 potassium channel, whole-cell patch clamp.
The mark [2] stands for this setting: hERG channel, whole-cell patch clamp.
Where [3] appears, read: CHO-K1 cells stably expressing Kv1.3, 100 ms pulses from -90 mV to +40 mV, 0.1 Hz.
Setting [4] is: CHO-K1 cells stably expressing hERG, +20 mV 300 ms, -50 mV 300 ms tail current, 0.3 Hz.

T2 sequence (Q12809 whole entry): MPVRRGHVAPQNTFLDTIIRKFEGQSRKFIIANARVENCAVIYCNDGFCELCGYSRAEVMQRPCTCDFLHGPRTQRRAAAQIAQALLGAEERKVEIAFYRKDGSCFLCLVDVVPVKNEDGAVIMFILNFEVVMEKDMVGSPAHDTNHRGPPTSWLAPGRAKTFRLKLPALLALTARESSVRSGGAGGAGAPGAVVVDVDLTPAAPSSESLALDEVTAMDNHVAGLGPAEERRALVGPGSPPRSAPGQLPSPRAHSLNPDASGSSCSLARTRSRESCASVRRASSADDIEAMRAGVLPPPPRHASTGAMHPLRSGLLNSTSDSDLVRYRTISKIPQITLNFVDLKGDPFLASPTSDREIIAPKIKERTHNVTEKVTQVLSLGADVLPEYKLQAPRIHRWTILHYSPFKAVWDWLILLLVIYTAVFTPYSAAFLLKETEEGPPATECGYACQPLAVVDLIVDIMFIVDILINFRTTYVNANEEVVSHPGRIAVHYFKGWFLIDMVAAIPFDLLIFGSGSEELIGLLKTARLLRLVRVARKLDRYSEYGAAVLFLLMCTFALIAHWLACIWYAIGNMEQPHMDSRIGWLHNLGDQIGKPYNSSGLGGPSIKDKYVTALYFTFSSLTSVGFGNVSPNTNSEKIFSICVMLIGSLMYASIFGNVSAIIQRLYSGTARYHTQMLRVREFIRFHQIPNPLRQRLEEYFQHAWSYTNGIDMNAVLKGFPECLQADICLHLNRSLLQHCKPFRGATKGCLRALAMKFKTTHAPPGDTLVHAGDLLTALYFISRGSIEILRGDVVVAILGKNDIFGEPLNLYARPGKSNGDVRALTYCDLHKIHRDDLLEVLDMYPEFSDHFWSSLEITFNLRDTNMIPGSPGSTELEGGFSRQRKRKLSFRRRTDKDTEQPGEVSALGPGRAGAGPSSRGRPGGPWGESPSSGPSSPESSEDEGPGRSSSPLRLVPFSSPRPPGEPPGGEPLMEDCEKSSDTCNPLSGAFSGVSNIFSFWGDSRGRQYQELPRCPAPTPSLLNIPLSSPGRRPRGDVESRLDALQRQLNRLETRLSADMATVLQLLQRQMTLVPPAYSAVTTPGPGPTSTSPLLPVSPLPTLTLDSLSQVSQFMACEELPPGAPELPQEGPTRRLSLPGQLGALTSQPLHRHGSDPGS
T1 sequence (P22001 whole entry): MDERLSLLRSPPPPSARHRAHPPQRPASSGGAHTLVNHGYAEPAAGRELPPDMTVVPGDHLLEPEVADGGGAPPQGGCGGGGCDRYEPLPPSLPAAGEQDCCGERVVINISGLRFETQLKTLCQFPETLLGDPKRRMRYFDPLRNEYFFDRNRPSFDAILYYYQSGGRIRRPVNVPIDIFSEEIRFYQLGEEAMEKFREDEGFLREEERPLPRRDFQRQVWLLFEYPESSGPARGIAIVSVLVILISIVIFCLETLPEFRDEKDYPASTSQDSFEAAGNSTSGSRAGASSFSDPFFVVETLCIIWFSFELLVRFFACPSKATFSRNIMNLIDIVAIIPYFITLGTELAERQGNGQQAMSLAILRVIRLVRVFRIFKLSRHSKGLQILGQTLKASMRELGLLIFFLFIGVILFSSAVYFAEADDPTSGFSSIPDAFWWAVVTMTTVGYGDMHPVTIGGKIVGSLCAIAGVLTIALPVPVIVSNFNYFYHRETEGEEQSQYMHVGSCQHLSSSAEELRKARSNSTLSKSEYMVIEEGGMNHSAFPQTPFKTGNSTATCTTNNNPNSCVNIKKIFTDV

In the case of `CC[C@H](O)CC(=O)N1CC(=O)N2C[C@@H](c3c(O)ccc(Cl)c3Cl)C[C@H]2C1` [Compound 70, (7R,8aS)-7-(2,3-dichloro-6-hydroxyphenyl)-2-[(3S)-3-hydroxypentanoyl]-hexahydropyrrolo [1,2-a]pyrazin-4-one], the IC50 against Kv1.3 potassium channel (setting [1]) was below 1 µM; on hERG channel (setting [2]), below 30 µM.
The corresponding values for `C[C@H](CO)N1CC(=O)N2C[C@@H](c3c(O)ccc(Cl)c3Cl)C[C@H]2C1` (single isomer, unassigned) [Compound 116] are below 1 µM and above 30 µM.
The corresponding values for `C[C@@H](CO)N1CC(=O)N2C[C@@H](c3c(O)ccc(Cl)c3Cl)C[C@H]2C1` (single isomer, unassigned; isomer 2) [Compound 117] are below 1 µM and above 30 µM.
Regarding `O=C1C[C@H](N2CC[C@H](O)C2)C[C@@H]2C[C@H](c3c(O)ccc(Cl)c3Cl)CN12` (single isomer, unassigned) [Compound 193], the IC50 was below 1 µM against Kv1.3 potassium channel (setting [1]) and above 30 µM at hERG channel (setting [2]).
For the molecule `COC[C@H](O)C(=O)N1CC(=O)N2CC[C@@H](c3c(O)ccc(Cl)c3Cl)C[C@H]2C1` [Compound 44, (8R,9aS)-8-(2,3-dichloro-6-hydroxyphenyl)-2-[(2S)-2-hydroxy-3-methoxypropanoyl]-hexahydro-1H-pyrido[1,2-a]pyrazin-4-one], the IC50 against Kv1.3 potassium channel (setting [3]) was below 1 µM; against hERG channel (setting [4]), above 30 µM.
Turning to `O=C1CNC[C@@H]2CC(c3c(O)ccc(Cl)c3Cl)CN12` (stereo partly drawn) [Compound 33, (8aS)-7-(2,3-dichloro-6-hydroxyphenyl)-hexahydro-1H-pyrrolo[1,2-a]pyrazin-4-one trifluoroacetic acid], the values for the IC50 at Kv1.3 potassium channel (setting [3]) and against hERG channel (setting [4]) were below 1 µM and below 30 µM, respectively.
Regarding `C[C@H](O)CN1CC(=O)N2C[C@@H](c3c(O)ccc(Cl)c3Cl)C[C@H]2C1` (single isomer, unassigned; isomer 2) [Compound 151], the IC50 was below 1 µM at Kv1.3 potassium channel (setting [1]) and above 30 µM at hERG channel (setting [2]).
In the case of `C[C@@H]1CC(=O)N2C[C@@H](c3c(O)ccc(Cl)c3Cl)C[C@H]2CN1C(=O)CO` [Compound 93, (3R,8R,9aS)-8-(2,3-dichloro-6-hydroxyphenyl)-2-(2-hydroxyacetyl)-3-methyl-hexahydro-1H-pyrrolo[1,2-a][1,4]diazepin-5-one], the IC50 against Kv1.3 potassium channel (setting [1]) was below 1 µM; against hERG channel (setting [2]), below 30 µM.
As to `O=C1CN([C@H]2C[C@@H](O)C2)C[C@@H]2C[C@H](c3c(O)ccc(Cl)c3Cl)CN12` (relative stereo) [Compound 126, (7R,8aS)-7-(2,3-dichloro-6-hydroxyphenyl)-2-[(1s,3R)-rel-3-hydroxycyclobutyl] hexahydropyrrolo [1,2-a]pyrazin-4-one], the values for the IC50 against Kv1.3 potassium channel (setting [1]) and at hERG channel (setting [2]) were below 1 µM and above 30 µM, respectively.
The like results for `NC(=O)N1CC(=O)N2CC[C@@H](c3c(O)ccc(Cl)c3Cl)C[C@H]2C1` [Compound 96, (8R,9aS)-8-(2,3-dichloro-6-hydroxyphenyl)-4-oxo-hexahydro-1H-pyrido[1,2-a]pyrazine-2-carboxamide] were, in that order, below 1 µM and above 30 µM.
As for `O=C1CN(C(=O)[C@H]2C[C@@H](O)C2)C[C@@H]2C[C@H](c3c(O)ccc(Cl)c3Cl)CN12` (single isomer, unassigned; isomer 2) [Compound 22], the IC50 at Kv1.3 potassium channel (setting [3]) was below 1 µM; against hERG channel (setting [4]) it was above 30 µM.
For the molecule `O=C1O[C@@H](CN2CCNCC2)[C@@H]2C[C@H](c3c(O)ccc(Cl)c3Cl)CN12` (single isomer, unassigned) [Compound 279], the values for the half-maximal inhibitory concentration (IC50) on Kv1.3 potassium channel (setting [1]) and against hERG channel (setting [2]) were below 1 µM and below 30 µM, respectively.
For the molecule `CO[C@H](CO)C(=O)N1CC(=O)N2C[C@@H](c3c(O)ccc(Cl)c3Cl)C[C@H]2C1` [Compound 14, (7R,8aS)-7-(2,3-dichloro-6-hydroxyphenyl)-2-[(2R)-3-hydroxy-2-methoxypropanoyl]-hexahydropyrrolo[1,2-a]pyrazin-4-one], the IC50 is below 1 µM on Kv1.3 potassium channel (setting [3]) and above 30 µM at hERG channel (setting [4]).
Consider `CCNC(=O)N1CC(=O)N2C[C@@H](c3c(O)ccc(Cl)c3Cl)C[C@H]2C1` [Compound 35, (7R,8aS)-7-(2,3-dichloro-6-hydroxyphenyl)-N-ethyl-4-oxo-hexahydropyrrolo[1,2-a]pyrazine-2-carboxamide], for which the half-inhibitory concentration (IC50) on Kv1.3 potassium channel (setting [3]) is below 1 µM; on hERG channel (setting [4]), above 30 µM.
On to `NC(=O)[C@H]1CC(=O)N2C[C@@H](c3c(O)ccc(Cl)c3Cl)C[C@H]2C1` (single isomer, unassigned) [Compound 231], for which the results for the IC50 at Kv1.3 potassium channel (setting [1]) and against hERG channel (setting [2]) were below 1 µM and above 30 µM, respectively.
The like results for `O=C1O[C@@H](CN2CC(O)C2)[C@@H]2C[C@H](c3c(O)ccc(Cl)c3Cl)CN12` (single isomer, unassigned) [Compound 282] were, in that order, below 1 µM and below 30 µM.
The like results for `O=C(NC[C@H]1OC(=O)N2C[C@@H](c3c(O)ccc(Cl)c3Cl)C[C@@H]12)C1CNC1` (single isomer, unassigned) [Compound 278] were, in that order, below 1 µM and above 30 µM.
Turning to `O=C(NC[C@@H]1OC(=O)N2C[C@@H](c3c(O)ccc(Cl)c3Cl)C[C@@H]12)C1CNC1` (single isomer, unassigned) [Compound 277], the 50% inhibitory concentration (IC50) was below 1 µM against Kv1.3 potassium channel (setting [1]) and above 30 µM at hERG channel (setting [2]).
As to `O=C1C[C@@H](N2CC[C@@H](O)C2)C[C@@H]2C[C@H](c3c(O)ccc(Cl)c3Cl)CN12` (single isomer, unassigned) [Compound 192], the IC50 on Kv1.3 potassium channel (setting [1]) is below 1 µM; on hERG channel (setting [2]), above 30 µM.
As for `O=C1CN([C@@H]2CCNC2)C[C@@H]2C[C@H](c3c(O)ccc(Cl)c3Cl)CN12` [Compound 143, (7R,8aS)-7-(2,3-dichloro-6-hydroxyphenyl)-2-[(3R)-pyrrolidin-3-yl]-hexahydropyrrolo [1,2-a]pyrazin-4-one], the values for the IC50 against Kv1.3 potassium channel (setting [1]) and against hERG channel (setting [2]) were below 1 µM and above 30 µM, respectively.
In the case of `O=C1CN(c2cnc(CO)cn2)C[C@@H]2C[C@H](c3c(O)ccc(Cl)c3Cl)CN12` [Compound 172], the IC50 against Kv1.3 potassium channel (setting [1]) was below 1 µM; at hERG channel (setting [2]), below 30 µM.
As for `O=C1[C@@H](CO)NC[C@@H]2C[C@H](c3c(O)ccc(Cl)c3Cl)CCN12` [Compound 57, (3R,8R,9aS)-8-(2,3-dichloro-6-hydroxyphenyl)-3-(hydroxymethyl)-octahydropyrido[1,2-a]pyrazin-4-one], the values for the 50% inhibitory concentration (IC50) at Kv1.3 potassium channel (setting [3]) and against hERG channel (setting [4]) were below 1 µM and above 30 µM, respectively.
The corresponding values for `CO[C@H](CO)C(=O)N1CC(=O)N2CC[C@@H](c3c(O)ccc(Cl)c3Cl)C[C@H]2C1` [Compound 29, (8R,9aS)-8-(2,3-dichloro-6-hydroxyphenyl)-2-[(2R)-3-hydroxy-2-methoxypropanoyl]-hexahydro-1H-pyrido[1,2-a]pyrazin-4-one] are below 1 µM and above 30 µM.
For `O=C1CN(CCO)C[C@@H]2C[C@H](c3c(O)ccc(Cl)c3Cl)CN12` [Compound 2, (7R,8aS)-7-(2,3-dichloro-6-hydroxyphenyl)-2-(2-hydroxyethyl)-hexahydropyrrolo[1,2-a]pyrazin-4-one], the results for the IC50 at Kv1.3 potassium channel (setting [3]) and against hERG channel (setting [4]) were below 1 µM and above 30 µM, respectively.
As for `O=C(C[C@@H](O)C(F)F)N1CC(=O)N2C[C@@H](c3c(O)ccc(Cl)c3Cl)C[C@H]2C1` [Compound 76, (7R,8aS)-7-(2,3-dichloro-6-hydroxyphenyl)-2-[(3R)-4,4-difluoro-3-hydroxybutanoyl]-hexahydropyrrolo [1,2-a]pyrazin-4-one], the results for the IC50 on Kv1.3 potassium channel (setting [1]) and on hERG channel (setting [2]) were below 1 µM and above 30 µM, respectively.
The like results for `NC(=O)CN1CC(=O)N2C[C@@H](c3c(O)ccc(Cl)c3Cl)C[C@H]2C1` [Compound 110, 2-[(7R,8aS)-7-(2,3-dichloro-6-hydroxyphenyl)-4-oxo-hexahydropyrrolo [1,2-a]pyrazin-2-yl]acetamide] were, in that order, below 1 µM and above 30 µM.
`O=C1NC[C@@H]2C[C@H](c3c(O)ccc(Cl)c3Cl)CN12` [Compound 293, (6R,7aS)-6-(2,3-dichloro-6-hydroxyphenyl)-hexahydropyrrolo[1,2-c]imidazol-3-one]: the IC50 at Kv1.3 potassium channel (setting [1]) was below 1 µM; against hERG channel (setting [2]), above 30 µM.
Take `CCC[C@H](CO)C(=O)N1CC(=O)N2C[C@@H](c3c(O)ccc(Cl)c3Cl)C[C@H]2C1` [Compound 77, (7R,8aS)-7-(2,3-dichloro-6-hydroxyphenyl)-2-[(2R)-2-(hydroxymethyl)pentanoyl]-hexahydropyrrolo [1,2-a]pyrazin-4-one]: the values for the IC50 against Kv1.3 potassium channel (setting [1]) and against hERG channel (setting [2]) were below 1 µM and above 30 µM, respectively.
The corresponding values for `O=C1CN([C@H]2C[C@@](O)(CO)C2)C[C@@H]2C[C@H](c3c(O)ccc(Cl)c3Cl)CN12` (single isomer, unassigned; isomer 2) [Compound 164] are below 1 µM and above 30 µM.
Turning to `CNC(=O)CN1CC(=O)N2C[C@@H](c3c(O)ccc(Cl)c3Cl)C[C@H]2C1` [Compound 111, 2-[(7R,8aS)-7-(2,3-dichloro-6-hydroxyphenyl)-4-oxo-hexahydropyrrolo [1,2-a]pyrazin-2-yl]-N-methylacetamide], the figures for the IC50 on Kv1.3 potassium channel (setting [1]) and against hERG channel (setting [2]) were below 1 µM and above 30 µM, respectively.
For `O=C1O[C@@H](CCO)[C@@H]2C[C@H](c3c(O)ccc(Cl)c3Cl)CN12` (single isomer, unassigned) [Compound 271], the IC50 against Kv1.3 potassium channel (setting [1]) was below 1 µM; on hERG channel (setting [2]), below 30 µM.
For the molecule `CNC(=O)[C@@H]1OC(=O)N2C[C@@H](c3c(O)ccc(Cl)c3Cl)C[C@@H]12` (single isomer, unassigned) [Compound 288], the IC50 was below 1 µM against Kv1.3 potassium channel (setting [1]) and above 30 µM on hERG channel (setting [2]).
